Test results: patent US6337306B1, “Phenoxyacetic acid derivatives and their use as herbicides” (Rhone-Poulenc Agro, priority 1997, dated 2002)

How the values were obtained:
Echinochloa oryzicola = assay: Test Method 1: soil application in paddy fields, herbicidal efficacy; assay type: in vivo; conditions: 1 kg ai/ha, wettable powder applied to paddy water, assessed 28 days after application; further: ranges in brackets are in %
Procedure: (§1) Test Method 1 (Soil Application in Paddy Fields) A suitable amount of water and chemical fertiliser were added to paddy field soil. A plastic pot (1/5000 a; 200 cm2) was filled with a portion of this soil followed by kneading to convert it to a state of a paddy field. A stock of paddy field rice plant (variety: Koshihikari) comprising a pair of two seedlings, which had been grown in advance in a greenhouse to the stage of two leaves, was transplanted into each pot. Furthermore, in each pot, there were sown predetermined amounts of seeds of Echinochloa orizicola, Monochoria vaginalis var. plantaginea, Lindernia procumbens and Scirpus jundoides var. hotarui, respectively, and water was added to a depth of 3 cm. On the next day a wettable powder formula was prepared by the method described in the Formulation Example 2, and diluted with a suitable amount of water to give a concentration of active ingredient of 1 kg per ha. The diluted formula was applied by dropping with a pipette. After 28 days from the application with the chemicals, herbicidal effects on each weeds and phytotoxicity on paddy field rice plants were assessed according to the following criteria of Table 3. [table]

Lindemia procunbens = assay: as above; assay type: in vivo; conditions: 1 kg ai/ha, wettable powder applied to paddy water, assessed 28 days after application; further: ranges in brackets are in %
Procedure: as §1

Monochoria vaginalis = assay: as above; assay type: in vivo; conditions: 1 kg ai/ha, wettable powder applied to paddy water, assessed 28 days after application; further: ranges in brackets are in %
Procedure: as §1

Scirpus juncoides = assay: as above; assay type: in vivo; conditions: 1 kg ai/ha, wettable powder applied to paddy water, assessed 28 days after application; further: ranges in brackets are in %
Procedure: as §1

Oryza sativa = assay: Test Method 1: soil application in paddy fields, phytotoxicity on transplanted paddy field rice plants; assay type: in vivo, Oryza sativa (variety: Koshihikari); conditions: 1 kg ai/ha, transplanted rice at two-leaf stage, assessed 28 days after application; further: ranges in brackets are in %
Procedure: as §1

Soya, Maize, Rice, Wheat = assay: Test Method 2: crop damage / selectivity, glass house pot test; assay type: in vivo, crop species; conditions: at levels of applications toxic to the weeds
Procedure: TEST METHOD 2 a) General Appropriate quantities of the compounds used to treat the plants were dissolved in acetone to give solutions equivalent to application rates of up to 250 g test compound per hectare (g/ha). These solutions were applied from an automatic laboratory herbicide sprayer delivering the equivalent of 720 liters of spray fluid per hectare. b) Weed control: Pre-emergence The seeds were sown in 70 mm square, 75 mm deep plastic pots in non-sterile soil, 3 species per pot. The quantities of seed per pot were as follows: [table] The compounds of the invention were applied to the soil surface, containing the seeds, as described in (a). Pots containing the species represented were allocated to each treatment, with unsprayed controls and controls sprayed with acetone alone. After treatment the pots were placed on capillary matting kept in a glass house, and watered overhead. Visual assessment of crop damage was made 17 days after spraying. The results were expressed as the percentage reduction in growth or damage to the crop or weeds, in comparison with the plants in the control pots.

Compound | Herbicidal efficacy (Point) ECHOR (Echinochloa oryzicola) | Herbicidal efficacy (Point) LIDPY (Lindemia procunbens) | Herbicidal efficacy (Point) MOOVA (Monochoria vaginalis) | Herbicidal efficacy (Point) SCPJU (Scirpus juncoides) | Phytotoxicity ORYSA (Oryza sativa) | crop selectivity (Soya, Maize, Rice, Wheat) | Herbicidal efficacy (Point) ECHOR (Echinochloa oryzicola; listed as 5.146 E isomer) | Herbicidal efficacy (Point) LIDPY (Lindemia procunbens; listed as 5.146 E isomer) | Phytotoxicity ORYSA (Oryza sativa; listed as 5.146 E isomer) | Herbicidal efficacy (Point) ECHOR (Echinochloa oryzicola; listed as 5.146 Z isomer) | Herbicidal efficacy (Point) LIDPY (Lindemia procunbens; listed as 5.146 Z isomer) | Phytotoxicity ORYSA (Oryza sativa; listed as 5.146 Z isomer)
COC=C(Oc1ccc(Cl)cc1CBr)C(=O)OC [Compound 1.73] | 10 (90-100) | 7 (60-70) | 10 (90-100) | 9 (80-90) | 2 (10-20) | selective in at least one crop species | – | – | – | – | – | –
COC=C(Oc1ccc(Cl)cc1CO)C(=O)OC [Compound 1.313, Methyl 2-(2-Hydroxymethyl-4-chlorophenoxy)-3-methoxyacrylate] | 10 (90-100) | 10 (90-100) | 10 (90-100) | 10 (90-100) | 3 (20-30) | selective in at least one crop species | – | – | – | – | – | –
COC=C(Oc1ccccc1COc1ccccc1C)C(=O)OC [Compound 2.6, Methyl 2-[2-(2-Methylphenoxy)methylphenoxy]-3-methoxyacrylate] | 10 (90-100) | 8 (70-80) | 10 (90-100) | 7 (60-70) | 3 (20-30) | – | – | – | – | – | – | –
COC=C(Oc1ccc(Cl)cc1COc1ccccc1C)C(=O)OC [Compound 2.129] | 10 (90-100) | 9 (80-90) | 10 (90-100) | 8 (70-80) | 2 (10-20) | selective in at least one crop species | – | – | – | – | – | –
COC=C(Oc1ccc(Cl)cc1COc1ccccc1C)C(=O)O [Compound 2.135, 2-[4-Chloro-2-(2-methylphenoxymethyl)]phenoxy-3-methoxyacrylic Acid] | 4 (30-40) | 0 (0) | 9 (80-90) | 4 (30-40) | 0 (0) | – | – | – | – | – | – | –
COC=C(Oc1ccc(Cl)cc1COC(C)=O)C(=O)OC [Compound 2.619, Methyl 2-(2-Acetyloxymethyl-4-chlorophenoxy)-3-methoxyacrylate] | 10 (90-100) | 10 (90-100) | 10 (90-100) | 9 (80-90) | 3 (20-30) | selective in at least one crop species | – | – | – | – | – | –
COC=C(Oc1ccc(Cl)cc1CON=C(C)C)C(=O)OC [Compound 4.61] | 10 (90-100) | 10 (90-100) | 9 (80-90) | 9 (80-90) | 1 (0-10) | – | – | – | – | – | – | –
COC=C(Oc1ccccc1CON=C(C)c1ccc(Cl)cc1)C(=O)OC [Compound 4.68] | 10 (90-100) | 8 (70-80) | 10 (90-100) | 6 (50-60) | 3 (20-30) | – | – | – | – | – | – | –
COC=C(Oc1ccc(Cl)cc1CON=C(C)c1ccc(Cl)cc1)C(=O)OC [Compound 4.71] | 10 (90-100) | 9 (80-90) | 10 (90-100) | 9 (80-90) | 3 (20-30) | selective in at least one crop species | – | – | – | – | – | –
COC=C(Oc1ccccc1CON=C(C)OCc1ccccc1)C(=O)OC [Compound 4.99] | 9 (80-90) | 8 (70-80) | 10 (90-100) | 5 (40-50) | 3 (20-30) | – | – | – | – | – | – | –
COC=C(Oc1ccc(Cl)cc1CON=C(C)OCc1ccccc1)C(=O)OC [Compound 4.107] | 10 (90-100) | 5 (40-50) | 10 (90-100) | 9 (80-90) | 1 (0-10) | selective in at least one crop species | – | – | – | – | – | –
CCC(=NOCc1ccccc1)OCc1ccccc1OC(=COC)C(=O)OC [Compound 5.146 E isomer, Methyl 2-{2-[(1-Benzyloxyiminopropyl)oxymethyl]phenoxy}-3-methoxyacrylate] | – | – | – | – | – | – | 9 (80-90) | 8 (70-80) | 2 (10-20) | – | – | –
CCC(=NOCc1ccccc1)OCc1ccccc1OC(=COC)C(=O)OC [Compound 5.146 Z isomer, Methyl 2-{2-[(1-Benzyloxyiminopropyl)oxymethyl]phenoxy}-3-methoxyacrylate] | – | – | 10 (90-100) | 3 (20-30) | – | – | – | – | – | 10 (90-100) | 9 (80-90) | 3 (20-30)
CCC(=NOCc1ccccc1)OCc1cc(Cl)ccc1OC(=COC)C(=O)OC [Compound 5.541 E isomer] | 10 (90-100) | 10 (90-100) | 10 (90-100) | 9 (80-90) | 1 (0-10) | selective in at least one crop species | – | – | – | – | – | –
